Broadly, the IC50 is the concentration that gives 50% inhibition.

From US5885994A, “Tetrahydroquinoxaline dopamine D4 receptor antagonists” (Warner-Lambert Company, priority 1998, dated 1999) come the findings set out here.

The target of one assay is T1, human D4.2 receptor (Homo sapiens, UniProt P21917, DEL265-296).
T1 construct: expressed in transfected cells; host or cells: CHO K1 cells
T1 sequence (P21917 with tags, fused parts or gaps DEL265-296): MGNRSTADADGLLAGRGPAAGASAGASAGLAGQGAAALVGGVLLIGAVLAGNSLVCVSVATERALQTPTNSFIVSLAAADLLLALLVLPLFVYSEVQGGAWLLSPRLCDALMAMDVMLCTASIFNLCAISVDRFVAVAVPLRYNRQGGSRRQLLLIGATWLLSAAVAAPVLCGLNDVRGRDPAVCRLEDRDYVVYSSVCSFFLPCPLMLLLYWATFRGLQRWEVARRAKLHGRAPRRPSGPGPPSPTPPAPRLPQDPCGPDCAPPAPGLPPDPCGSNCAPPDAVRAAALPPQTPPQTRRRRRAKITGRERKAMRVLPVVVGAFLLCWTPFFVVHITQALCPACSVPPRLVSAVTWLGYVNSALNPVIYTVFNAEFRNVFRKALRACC
Description: Inhibition of [3H]spiperone binding to human dopamine D4.2 receptors. The following applies: human D4.2, CHO K1 membranes. An excerpt:
(§1) A cell line expressing human dopamine D2 (Long form) receptors was purchased from Oregon Health Sciences University, Portland, Oreg. The D2 receptor cDNA was subcloned into an expression vector, pRc/CMV. The plasmids were transfected by electroporation into CHO K1 cells. A single stable transfectant, resistant to the antibiotic 418, was isolated and selected for use in the binding studies. For D4 binding, CHO K1 cells stably transfected to express the human recombinant dopamine D4.2 receptor subtype, as described by Shih, et al., "The expression and functional characterization of human dopamine D4.2 receptor in CHO K1 cells," Soc. Neurosci., 1995;21(Part 1):621.
(§2) CHO K1 cells expressing either human D2 and D4.2 receptors were grown in 162 cm^2 culture flasks in F12 medium (Gibco Laboratories, Grand Island, N.Y.) supplemented with 10% fetal bovine serum (FBS, Hyclone, Logan, Utah) in an atmosphere of 5% CO2 /95% air at 37° C. Cells were grown until confluent, after which growth medium was removed and replaced with 0.02% ethylene diamine tetracetate (EDTA) in a phosphate-buffered saline solution (Sigma Chemical Co., St. Louis, Mo.) and scraped from the flasks. The cells were centrifuged at about 1000×g for 10 minutes at […] and then resuspended in TEM buffer (25 mM Tris-HCl, pH 7.4, 5 mM EDTA, and 6 mM MgCl2) for D2 or the D4.2 buffer (50 mM Tris-HCl, pH 7.4, 5 mM EDTA, 1.5 mM CaCl2, 5 mM KCl, and 120 mM NaCl) and homogenized. The membranes were pelleted by centrifugation at 20,000×g at […] for 20 minutes. Then the pellets were resuspended in appropriate buffer at 1 mL/flask and stored at -70° C. until used in the receptor binding assay.
(§3) Receptor Binding Assays: D2,D4.2 Dopamine Receptors
(§4) After 60 minutes incubation at 25° C., the incubations were terminated by rapid filtration through Whatmann F/B lass fibre filters (soaked for 1 hour in 0.5% polyethylenimine) on a cell harvester, with three washes of 1 mL ice-cold buffer. Individual filter disks containing the bound ligand were placed in counting vials with 4 mL of scintillation fluid (Ready Gel, Beckman Instrument Inc., Fullerton, Calif.) and then counted in a Beckman LS-6800 liquid scintillation counter at an efficiency of 45%. Nonspecific binding was defined in presence of 1 mM of haloperidol.
(§5) Saturation and competition binding data were analyzed using an iterative nonlinear least-square curve-fitting Ligand program. In competition experiments, apparent Ki values were calculated from IC50 values by method of Cheng and Prusoff, "Relationship between the inhibition constant (Ki) and the concentration of inhibitor which causes 50% inhibition (IC50) of an enzymatic reaction," Biochem. Pharmacol., 1973;22:3099-3108. Experimental compounds were made up as stock solutions in dimethyl sulfoxide (DMSO). […] Each observation was carried out in triplicate. To allow these calculations, Ki values were measured for the interaction of various ligands with the receptor. […]

The target in another assay is human D2 receptor (Homo sapiens, UniProt P14416). Description: Inhibition of [3H]spiperone binding to human dopamine D2 receptors. The settings on record: human D2 (Long form), CHO K1 membranes.
Excerpt: as §1, §2, §3, §4, §5

human D2 receptor, sequence (P14416 whole entry): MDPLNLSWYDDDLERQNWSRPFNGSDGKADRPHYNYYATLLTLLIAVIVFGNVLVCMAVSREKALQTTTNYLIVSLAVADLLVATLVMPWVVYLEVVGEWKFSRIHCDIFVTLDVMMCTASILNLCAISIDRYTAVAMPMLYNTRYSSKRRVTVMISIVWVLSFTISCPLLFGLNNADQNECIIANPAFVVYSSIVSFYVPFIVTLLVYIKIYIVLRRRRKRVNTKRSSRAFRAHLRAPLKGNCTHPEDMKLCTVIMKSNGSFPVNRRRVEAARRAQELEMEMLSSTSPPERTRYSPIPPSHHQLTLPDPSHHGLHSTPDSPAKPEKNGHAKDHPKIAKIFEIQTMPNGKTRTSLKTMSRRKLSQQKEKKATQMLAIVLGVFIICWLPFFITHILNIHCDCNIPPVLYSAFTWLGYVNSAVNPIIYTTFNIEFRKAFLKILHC

Take `Cc1ccc(N2CCN(Cc3ccc4c(c3)NCCN4)CC2)cc1C` [Example 2, 6-[4-(3,4-Dimethylphenyl)piperazin-1-ylmethyl]-1,2,3,4-tetrahydroquinoxaline]: the figures for the concentration for half-maximal inhibition (IC50) at human D4.2 receptor and on human D2 receptor were 2.8 nM and 2940 nM, respectively.
